How the values were obtained:
Actin DsRed+ Lin− cells = assay: Intrafemoral cotransplantation of treated murine stroma cells with untreated Lin− cells; assay type: in vivo, mice; conditions: cotransplanted with warfarin- vs vehicle-treated stroma
Protocol: (§1) For the intrafemoral co-transplantation experiments 0.8×10^5 human CD34+ cells or 1×10^5 Lin− cells from Actin-DsRed reporter mice were mixed with 5×10^5 human or murine stroma cells which had been expanded in vitro and pretreated with vehicle or 2 μM warfarin for 14 days. The human stromal cells had been obtained via flushing of discarded bones from the orthopedic operating room, as approved of by the local ethics committee.

human CD34+ cells [1] = assay: Intrafemoral cotransplantation of human CD34+ cells with treated human stroma cells into NSG mice; assay type: in vivo
Protocol: as §1
(§2) We assessed the complete blood count of vehicle or warfarin-treated mice using a complete blood count analyzer (Scil Vet ABC, Gurnee, IL). Peripheral blood and bone marrow samples were stained with antibodies for flow cytometry, which was performed on a BD LSR Fortessa (BD Biosciences, Heidelberg, Germany). The lineage antibody cocktail contained antibodies to B220, CD5, Ter119, F4/80 and CD11b. Engraftment of human cells in NSG mice was assessed using anti-human CD45 (BD Biosciences, San José, CA).
Stroma and hematopoietic cells (purified for CD34+) were taken from the iliac crest of healthy donors of allogeneic bone marrow.

F4/80+ macrophages = assay: Macrophage coculture assay and periostin in macrophage conditioned medium; assay type: cell-based, mice
From the text: For the macrophage coculture assay F4/80+ macrophages were sorted from the bone marrow of control or warfarin-treated mice, plated and cocultured with 20,000-30,000 Lin− BM cells as from the following day.

HSPC = assay: Methylcellulose colony assay of BM cells from treated mice; assay type: cell-based; conditions: from warfarin-treated vs control mice, P=0.02
From the text: For the methylcellulose colony assays, we plated 10,000 total BM cells from vehicle- or warfarin-treated mice in methylcellulose (M3434, Stem Cell Technologies, Vancouver, Canada). We scored colonies after 10 days.

periostin knockout mice = assay: Warfarin treatment of periostin knockout mice; assay type: in vivo
From the text: (§3) 7 to 10 week old C57BL6/N (CD45.2) or SJL (CD45.1; B6.SJL-Ptprca Pepcb/BoyJ), Col1a1 2.3 kb-GFP (kind gift from D. Rowe), Nestin-GFP (Mignone et al., 2004) and periostin knockout mice (kind gift from Juerg Huelsken) were used for these experiments. NOD SCID interleukin (IL)-2 receptor γ deficient (NSG) mice were purchased from Charles River Laboratories (Sulzfeld, Germany) and bred in our facility. All animal studies were approved by the local German government (Regierungspräsidium Darmstadt) in Hessen, Germany, and by the Institutional Animal Care and Use Committee (IACUC) of Boston University.
(§4) 0.5 mg/kg/d or 0.05 mg/kg/d of warfarin, resuspended in phosphate-buffered saline was administered to mice via subcutaneously implanted osmotic minipumps (ALZET minipumps, Cupertino, CA). The osmotic minipumps were changed after 14 days (if the experiment went beyond 14 days of treatment). Sham operated (skin incision and suture) mice served as controls. Warfarin treatment continued for 10-14 days. In the xenotransplantation experiments the mice were treated with warfarin via the drinking water (or normal drinking water) at a dose of 0.72 mg/100 ml for a total of 3 days a week (Pfeilschifter et al., 2011).
5-fluorouracil was intraperitoneally injected every week at a dose of 75 mg/kg for a total of 4 doses or as a one time dose of 200 mg/kg. […]

human CD34+ cells [2] = assay: Xenotransplantation of human CD34+ cells into warfarin-treated NSG mice; assay type: in vivo; conditions: warfarin- vs vehicle-treated NSG mice, 6 weeks after transplantation, P=0.015
Protocol: as §4
For the xenotransplantation experiments, we intravenously injected 1.3×10^5 human CD34+ cells, obtained via magnetic separation by magnetic beads (Miltenyi Biotech, Bergisch Gladbach, Germany) from BM filters used after harvest of non-mobilized HSPC from healthy allogeneic donors, into irradiated (250 cGy) NSG mice, which had previously been treated with vehicle or warfarin for 14 days.
We assessed the complete blood count of vehicle or warfarin-treated mice using a complete blood count analyzer (Scil Vet ABC, Gurnee, IL). […] Engraftment of human cells in NSG mice was assessed using anti-human CD45 (BD Biosciences, San José, CA).

[3] = tested on: Nestin-GFP or Col2.3 kb GFP mice; assay: Enumeration of Nestin-GFP+ MSC and Col2.3 kb GFP+ osteoblastic cells in bones; assay type: in vivo; conditions: warfarin 14 days
From the text: as §3, §4

Lin− hematopoietic cells = assay: Direct effect of warfarin on Lin− hematopoietic cells in vitro; assay type: cell-based, mice
Protocol: Concentrations of drugs for in vitro use were 2 μM for warfarin, 2 μg/ml for periostin, 5 μM for the AKT inhibitor MK-2206 (Selleck Chemicals, Houston, TX) and cilengitide (Selleck Chemicals, Houston, TX, Cat. No. #S7077) was used at 0.05 μM. Phosphate buffered saline served as the vehicle control.
To test the direct effect of warfarin on hematopoietic cells 100,000 Lin− cells were cultured in 2 μM vehicle or warfarin in the absence of stroma cells for a total of 7 days. For the in vitro rescue experiment with periostin stroma cells were grown in warfarin for 14 days, before vehicle or periostin were added.

patients = assay: Peripheral blood counts of patients on VKA versus control patients; assay type: in vivo, human
From the text: For FIGS. 6C-6H: Data of patients on VKA were obtained from the French health care databases. Patients with hematological disease, inflammation or sepsis were excluded. Patients admitted to the hospital for dermatological problems without hematological disease or sepsis acted as controls.

wildtype mice = assay: Complete blood count and flow cytometry of peripheral blood and bone marrow of treated mice; assay type: in vivo; conditions: for absolute number of monocytes in peripheral blood / absolute number of leukocytes in peripheral blood: 14 days after initiation
Protocol: as §4
5-fluorouracil was intraperitoneally injected every week at a dose of 75 mg/kg for a total of 4 doses or as a one time dose of 200 mg/kg. Recombinant mouse periostin (R&D Systems, Minneapolis, MN, cat. no. 2955-F2), produced in the Sf21 (baculovirus)-derived insect cell line, was administered intravenously at a dose of 2-4 μg per day and vitamin K was given at a dose of 15 mg/kg by oral gavage for four consecutive days.
as §2

With `CC(=O)CC(c1ccccc1)c1c(O)c2ccccc2oc1=O` (centres unmarked) [warfarin] the “engraftment of donor-derived myeloid cells” value (Actin DsRed+ Lin− cells; P=0.023) was “decreased engraftment”, the “engraftment of total donor bone marrow” value (Actin DsRed+ Lin− cells; P=0.025) was “decreased engraftment” and the “huCD45+ engraftment in femora” value (human CD34+ cells [1]; 6 months after transplantation) was “only trends towards lower”. The “engraftment of human CD45+ leukocytes” value (human CD34+ cells [1]; cotransplanted with warfarin-treated human stroma, 4 weeks, P=0.046) was “decreased engraftment”, the “percentage of Annexin V+ apoptotic leukocytes” value (F4/80+ macrophages; untreated Lin− cells on warfarin-treated sorted F4/80+ macrophages, P=0.034) was “increased” and the “total periostin levels in conditioned medium from macrophages” value (F4/80+ macrophages; vehicle- versus warfarin-treated macrophages, coimmunoprecipitation) was “no significant reduction”. For the same compound, the “colony-forming ability of HSPC” value (HSPC) was “significantly impaired”, the “leukocyte counts or survival in periostin knockout mice after 5-fluorouracil” value (periostin knockout mice; repetitive doses of 75 mg/kg 5-fluorouracil) was “did not lead to lower leukocyte counts or decreased survival” and the “total leukocytes or monocytes in periostin knockout mice” value (periostin knockout mice; vs control periostin knockout mice) was “did not lead to a decrease”. The “engraftment of human CD45+ leukocytes” value (human CD34+ cells [2]) was “reduced engraftment”, the “number of Col2.3 kb+ osteoblastic cells” value [3] was “n.s. and no reduction” and the “number of Nestin+ MSC” value ([3]; P=0.047) was “significant reduction”. For the same compound, the “number of colonies from Lin− cells previously exposed in vitro” value (Lin− hematopoietic cells; 2 μM warfarin or vehicle for 7 days, scored day 10) was “did not yield significantly different numbers of colonies”, the “effect on phenotypical Lin− or LKS cells, annexin V+ dead cells, cycling or myeloid cells” value (Lin− hematopoietic cells; Lin− cells cultured in warfarin-containing media) was “no direct effect” and the “absolute number of leukocytes” value (patients; 282 patients on warfarin (P=0.0007) or 89 on fluindione (P=0.029) vs 145 control patients) was “significantly decreased”. The “absolute number of monocytes” value (patients; 282 patients on warfarin (P=0.004) or 89 on fluindione (P=0.046) vs 145 control patients) was “significantly decreased”, the percentage of eosinophils (patients; 282 patients on warfarin vs 145 control patients, P=0.0027) was “significantly decreased” and the percentage of basophils (patients; 282 patients on warfarin vs 145 control patients, P=0.007) was “significantly decreased”. The platelets (patients; warfarin- or fluindione-treated patients) was “not reduced”, the “absolute count and percentage of LKS, LKS SLAM and myeloid progenitor cells in the bone marrow” value (wildtype mice; 2 and 4 weeks, controls vs warfarin-treated mice) was “did not significantly differ” and the “time at which the decrease in leukocytes and monocytes appeared” value (wildtype mice; after initiation of treatment) was “as early as three days”. For the same compound, the “absolute number of monocytes in peripheral blood” value (wildtype mice; higher dose (0.5 mg/kg), P=0.007) was “reduced”, the “absolute number of leukocytes in peripheral blood” value (wildtype mice; higher dose (0.5 mg/kg), P=0.008) was “reduced” and the “absolute number of leukocytes in peripheral blood” value (wildtype mice; lower dose (0.05 mg/kg)) was “reduced”. The “absolute number of monocytes in peripheral blood” value (wildtype mice; lower dose (0.05 mg/kg)) was “reduced”, the “leukocyte and monocyte counts, oral versus subcutaneous administration” value (wildtype mice; oral versus subcutaneous) was “similarly reduced” and the lethal hemorrhagic complications (wildtype mice; subcutaneous versus oral treatment) was “fewer lethal hemorrhagic complications”. The lymphocyte count (wildtype mice; warfarin-treated mice) was “decreased, albeit to a lesser extent than myeloid cells” and the “percentage of CD11b+ myeloid cells in peripheral blood” value (wildtype mice; warfarin-treated vs control mice, P=0.003) was “decreased”.
